Experimental data as given in patent publication US7776849B2, “Benzenoid ansamycin derivative” (Kyowa Hakko Kirin Co., Ltd., priority 2005, dated 2010).

Key:
[1] = target: T1, Human N-terminal recombinant Hsp90 protein (region of amino acids 9 to 236) (Homo sapiens, UniProt P07900); experiment: Hsp90 protein binding assay (competition with biotinylated Radicicol, time-resolved fluorescence); settings: immobilized Hsp90, biotinylated Radicicol 0.1 μmol/L, 24° C.; read-out: concentration inhibiting the binding of biotinylated Radicicol to the Hsp90 protein by 50% or more
T1 construct: Human N-terminal recombinant Hsp90 protein (region of amino acids 9 to 236); made in house
Description: Hsp90 Protein Binding Assay
Human N-terminal recombinant Hsp90 protein (region of amino acids 9 to 236) prepared according to the method described in “Cell”, 1997, Vol. 89, p. 239-250 was diluted to 1 μg/mL with Tris-buffered saline (TBS, pH 7.5) and added to each well of a 96-well ELISA assay plate (Greiner) in an amount of 70 μL/well. The plate was incubated overnight at 4° C. to obtain the solid phase.
The supernatant was removed, and Tris-buffered saline containing 1% bovine serum albumin (BSA) was added in an amount of 350 μL/well for blocking.
After the blocking solution was removed, each resulting solid phase was washed by the addition of Tris-buffered saline containing 0.05% Tween 20 (TBST) in an amount of 350 μL/well. This washing procedure was repeated three times. […]
Enhancement solution (Wallac Oy) was added thereto in an amount of 100 μL/well and color developing reaction was carried out at room temperature for 5 minutes, followed by measurement of time-resolved fluorescence (excitation wavelength: 340 nm, measurement wavelength: 615 nm) using Multilabel Counter (ARVO 1420, Wallac Oy).
The binding rate in each well treated the test compound was calculated from the time-resolved fluorescence measured for each well based on the time-resolved fluorescence measured with the positive control taken as 100% binding rate and that with the negative control taken as 0% binding rate.

[2] = tested on: human chronic myelocytic leukemia K562 cells; experiment: Growth inhibition test on human chronic myelocytic leukemia K562 cells (WST-1); format: cell-based; settings: 72 hours, read-out: 50% growth inhibitory concentration (GI50)
Description: Growth Inhibition Test on Human Chronic Myelocytic Leukemia K562 Cells
First, 1,500 cells of human chronic myelocytic leukemia K562 were inoculated into each well of a 96-well microplate (manufactured by Nunc Corp.), and using RPMI1640 medium containing 10% fetal calf serum (FCS), preculturing was performed in a 5% carbon dioxide incubator at 37° C. for 5 hours. A DMSO solution of each test compound prepared in a concentration of 10 mmol/L was stepwise diluted with the culture medium and added thereto in a total amount of 100 μL/well. The resulting wells were further cultured in the 5% carbon dioxide incubator at 37° C. for 72 hours. […] Using a microplate spectrophotometer (SpectraMax 340PC384; manufactured by Molecular Devices), the absorbance of each well was measured at 450 nm and 655 nm. […] The value obtained by subtracting the absorbance at 655 nm from the absorbance at 450 nm (absorbance difference) was calculated for each well. The absorbance difference obtained from cells untreated with any of the test compounds was designated as 100%. The absorbance difference obtained from cells treated with the compounds at the test concentrations was compared. […]

Row | SMILES | IC50 [1] [µM] | GI50 [2] [µM]
1 | COC1/C=C\C=C(/C)C(=O)Nc2cc(O)cc(c2O)C(OC)C(C)CC(OC)C(OC)C(C)/C=C(\C)C1OC(N)=O (stereo not drawn) [Compound 1] | ≤ 10 | –
2 | COC1C=CC=C(C)C(=O)Nc2cccc(c2O)C(OC)C(C)CC(OC)C(OC)C(C)C=C(C)C1OC(N)=O (stereo not drawn) [Compound 2] | ≤ 10 | ≤ 10
